{
  "source": "patent US8309586B2",
  "about": "“Glucokinase activators and pharmaceutical compositions containing the same as an active ingredient” (LG Life Sciences Ltd., priority 2007, dated 2012)",
  "data": [
    {"system": "Glucokinase known as hexokinase IV (human GK isoform 1, pancreas form and human GK isoform 2, liver form)", "experiment": "Glucokinase enzymatic activity assay (G6PDH-coupled, NADH absorbance at 340 nm)", "assay_type": "biochemical", "conditions": "5 mM glucose, 1 mM ATP, 37 nM GK, 10 min at room temperature", "in_short": "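His-tagged human GK isoform 1 (pancreas) or 2 (liver), E. coli-expressed and Ni-purified, 37 nM, with 5 mM glucose, 1 mM ATP, 1 mM NAD and G6PDH in 25 mM Hepes/KCl, 2 mM MgCl2, 1 mM DTT. Ran 10 min at room temperature, read as NADH at 340 nm. AC1.5 is the compound concentration giving 1.5-fold activity.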", "units": {"AC1.5 (the compound concentration at which the enzymatic activity is increased by 1.5 times)": "nM"}, "values": [
      {"smiles": "Clc1cc(NC2CCOCC2)c2[nH]c(C3=N[C@H](CCN4CCN(c5cnccn5)CC4)CS3)cc2c1", "note": "[Example 122, (5-chloro-2-{(R)-4-[2-(2,3,5,6-tetrahydro-[1,2′]bipyrazinyl-4-yl)-ethyl]-4,5-dihydro-thiazol-2-yl}-1H-indol-7-yl)-(tetrahydropyran-4-yl)-amine]", "AC1.5 (the compound concentration at which the enzymatic activity is increased by 1.5 times)": 60},
      {"smiles": "Clc1cc(NC2CCOCC2)c2[nH]c(C3=N[C@H](CCN4CCN(c5ncccn5)CC4)CS3)cc2c1", "note": "[Example 123, (5-chloro-2-{(R)-4-[2-(4-pyrimidin-2-yl-piperazin-1-yl)-ethyl]-4,5-dihydro-thiazol-2-yl}-1H-indol-7-yl)-(tetrahydro-pyran-4-yl)-amine]", "AC1.5 (the compound concentration at which the enzymatic activity is increased by 1.5 times)": 62},
      {"smiles": "NCC[C@@H]1CSC(c2cc3cc(F)cc(NC4CCCC4)c3[nH]2)=N1", "note": "[Example 124, {2-[(R)-4-(2-amino-ethyl)-4,5-dihydro-thiazol-2-yl]-5-fluoro-1H-indol-7-yl}-cyclopentyl-amine]", "AC1.5 (the compound concentration at which the enzymatic activity is increased by 1.5 times)": 24},
      {"smiles": "CC(=O)N1CCN(CC[C@@H]2CSC(c3cc4cc(F)cc(NC5CCCC5)c4[nH]3)=N2)CC1", "note": "[Example 125, 1-(4-{2-[(R)-2-(7-cyclopentylamino-5-fluoro-1H-indol-2-yl)-4,5-dihydro-thiazol-4-yl]-ethyl}-piperazin-1-yl)-ethanone]", "AC1.5 (the compound concentration at which the enzymatic activity is increased by 1.5 times)": 23},
      {"smiles": "Fc1cc(NC2CCCC2)c2[nH]c(C3=N[C@H](CCN4CCOCC4)CS3)cc2c1", "note": "[Example 126, cyclopentyl-{5-fluoro-2-[(R)-4-(2-morpholin-4-yl-ethyl)-4,5-dihydro-thiazol-2-yl]-1H-indol-7-yl}-amine]", "AC1.5 (the compound concentration at which the enzymatic activity is increased by 1.5 times)": 20},
      {"smiles": "CN(C)CC[C@@H]1CSC(c2cc3cc(F)cc(NC4CCCC4)c3[nH]2)=N1", "note": "[Example 127, cyclopentyl-{2-[(R)-4-(2-dimethylamino-ethyl)-4,5-dihydro-thiazol-2-yl]-5-fluoro-1H-indol-7-yl}-amine]", "AC1.5 (the compound concentration at which the enzymatic activity is increased by 1.5 times)": 21},
      {"smiles": "Fc1cc(NC2CCCC2)c2[nH]c(C3=N[C@H](CCN4CCCC4)CS3)cc2c1", "note": "[Example 128, cyclopentyl-{5-fluoro-2-[(R)-4-(2-pyrrolidin-1-yl-ethyl)-4,5-dihydro-thiazol-2-yl]-1H-indol-7-yl}-amine]", "AC1.5 (the compound concentration at which the enzymatic activity is increased by 1.5 times)": 16},
      {"smiles": "O=S1(=O)CCN(CC[C@@H]2CSC(c3cc4cc(F)cc(NC5CCCC5)c4[nH]3)=N2)CC1", "note": "[Example 129, cyclopentyl-(2-{(R)-4-[2-(1,1-dioxo-thiomorpholin-4-yl)-ethyl]-4,5-dihydro-thiazol-2-yl}-5-fluoro-1H-indol-7-yl)-amine]", "AC1.5 (the compound concentration at which the enzymatic activity is increased by 1.5 times)": 67},
      {"smiles": "O=C1CN(CC[C@@H]2CSC(c3cc4cc(F)cc(NC5CCCC5)c4[nH]3)=N2)CCN1", "note": "[Example 130, 4-{2-[(R)-2-(7-cyclopentylamino-5-fluoro-1H-indol-2-yl)-4,5-dihydro-thiazol-4-yl]-ethyl}-piperazin-2-one]", "AC1.5 (the compound concentration at which the enzymatic activity is increased by 1.5 times)": 14},
      {"smiles": "O=C(CO)N1CCN(CC[C@@H]2CSC(c3cc4cc(F)cc(NC5CCCC5)c4[nH]3)=N2)CC1", "note": "[Example 131, 1-(4-{2-[(R)-2-(7-cyclopentylamino-5-fluoro-1H-indol-2-yl)-4,5-dihydro-thiazol-4-yl]-ethyl}-piperazin-1-yl)-2-hydroxy-ethanone]", "AC1.5 (the compound concentration at which the enzymatic activity is increased by 1.5 times)": 10},
      {"smiles": "CS(=O)(=O)CC[C@@H]1CSC(c2cc3cc(F)cc(NC4CCCC4)c3[nH]2)=N1", "note": "[Example 132, cyclopentyl-{5-fluoro-2-[(R)-4-(2-methanesulfonyl-ethyl)-4,5-dihydro-thiazol-2-yl]-1H-indol-7-yl}-amine]", "AC1.5 (the compound concentration at which the enzymatic activity is increased by 1.5 times)": 13},
      {"smiles": "O=S1(=O)CCN(CC[C@@H]2CSC(c3cc4cc(F)cc(NC5CCOCC5)c4[nH]3)=N2)CC1", "note": "[Example 137, (2-{(R)-4-[2-(1,1-dioxo-thiomorpholin-4-yl)-ethyl]-4,5-dihydro-thiazol-2-yl}-5-fluoro-1H-indol-7-yl)-(tetrahydropyran-4-yl)-amine]", "AC1.5 (the compound concentration at which the enzymatic activity is increased by 1.5 times)": 23},
      {"smiles": "CS(=O)(=O)CC[C@@H]1CSC(c2cc3cc(F)cc(NC4CCOCC4)c3[nH]2)=N1", "note": "[Example 138, (5-fluoro-2-[(R)-4-(2-methanesulfonyl-ethyl)-4,5-dihydro-thiazol-2-yl]-1H-indol-7-yl)-(tetrahydro-pyran-4-yl)-amine]", "AC1.5 (the compound concentration at which the enzymatic activity is increased by 1.5 times)": 36},
      {"smiles": "O=C1CN(CC[C@@H]2CSC(c3cc4cc(F)cc(NC5CCOCC5)c4[nH]3)=N2)CCN1", "note": "[Example 139, 4-(2-{(R)-2-[5-fluoro-7-(tetrahydro-pyran-4-ylamino)-1H-indol-2-yl]-4,5-dihydro-thiazol-4-yl}-ethyl)-piperazin-2-one]", "AC1.5 (the compound concentration at which the enzymatic activity is increased by 1.5 times)": 38},
      {"smiles": "O=C(CO)N1CCN(CC[C@@H]2CSC(c3cc4cc(F)cc(NC5CCOCC5)c4[nH]3)=N2)CC1", "note": "[Example 140, 1-[4-(2-{(R)-2-[5-fluoro-7-(tetrahydro-pyran-4-ylamino)-1H-indol-2-yl]-4,5-dihydro-thiazol-4-yl}-ethyl)-piperazin-1-yl]-2-hydroxy-ethanone]", "AC1.5 (the compound concentration at which the enzymatic activity is increased by 1.5 times)": 52},
      {"smiles": "COCC[C@@H]1CSC(c2cc3cccc(NC4CCCC4)c3[nH]2)=N1", "note": "[Example 141, cyclopentyl-{2-[(R)-4-(2-methoxy-ethyl)-4,5-dihydro-thiazol-2-yl]-1H-indol-7-yl}-amine]", "AC1.5 (the compound concentration at which the enzymatic activity is increased by 1.5 times)": 24},
      {"smiles": "CN(C)CC[C@@H]1CSC(c2cc3cccc(NC4CCCC4)c3[nH]2)=N1", "note": "[Example 142, cyclopentyl-{2-[(R)-4-(2-dimethylamino-ethyl)-4,5-dihydro-thiazol-2-yl]-1H-indol-7-yl}-amine]", "AC1.5 (the compound concentration at which the enzymatic activity is increased by 1.5 times)": 85},
      {"smiles": "c1cc(NC2CCCC2)c2[nH]c(C3=N[C@H](CCN4CCOCC4)CS3)cc2c1", "note": "[Example 143, cyclopentyl-{2-[(R)-4-(2-morpholin-4-yl-ethyl)-4,5-dihydro-thiazol-2-yl]-1H-indol-7-yl}-amine]", "AC1.5 (the compound concentration at which the enzymatic activity is increased by 1.5 times)": 37},
      {"smiles": "c1cc(NC2CCCC2)c2[nH]c(C3=N[C@H](CCN4CCCCC4)CS3)cc2c1", "note": "[Example 144, cyclopentyl-{2-[(R)-4-(2-piperidin-1-yl-ethyl)-4,5-dihydro-thiazol-2-yl]-1H-indol-7-yl}-amine]", "AC1.5 (the compound concentration at which the enzymatic activity is increased by 1.5 times)": 122},
      {"smiles": "CS(=O)(=O)CC[C@@H]1CSC(c2cc3cccc(NC4CCOCC4)c3[nH]2)=N1", "note": "[Example 145, {2-[(R)-4-(2-methanesulfonyl-ethyl)-4,5-dihydro-thiazol-2-yl]-1H-indol-7-yl}-(tetrahydro-pyran-4-yl)-amine]", "AC1.5 (the compound concentration at which the enzymatic activity is increased by 1.5 times)": 138},
      {"smiles": "COc1cc(NC2CCCC2)c2[nH]c(C3=N[C@H](CCN4CCN(C(=O)CO)CC4)CS3)cc2c1", "note": "[Example 146, 1-(4-{2-[(R)-2-(7-cyclopentylamino-5-methoxy-1H-indol-2-yl)-4,5-dihydro-thiazol-4-yl]-ethyl}-piperazin-1-yl)-2-hydroxy-ethanone]", "AC1.5 (the compound concentration at which the enzymatic activity is increased by 1.5 times)": 29},
      {"smiles": "COc1cc(NC2CCOCC2)c2[nH]c(C3=N[C@H](CCN4CCN(C(=O)CO)CC4)CS3)cc2c1", "note": "[Example 147, 2-hydroxy-1-[4-(2-{(R)-2-[5-methoxy-7-(tetrahydro-pyran-4-ylamino)-1H-indol-2-yl]-4,5-dihydro-thiazol-4-yl}-ethyl)-piperazin-1-yl]ethanone]", "AC1.5 (the compound concentration at which the enzymatic activity is increased by 1.5 times)": 52},
      {"smiles": "CCOC(=O)CC[C@@H]1CSC(c2cc3cc(Cl)cc(NC4CCCC4)c3[nH]2)=N1", "note": "[Example 148, 3-[(R)-2-(5-chloro-7-cyclopentylamino-1H-indol-2-yl)-4,5-dihydro-thiazol-4-yl]propionic acid ethyl ester]", "AC1.5 (the compound concentration at which the enzymatic activity is increased by 1.5 times)": 12},
      {"smiles": "O=C(O)CC[C@@H]1CSC(c2cc3cc(Cl)cc(NC4CCCC4)c3[nH]2)=N1", "note": "[Example 149, 3-[(R)-2-(5-chloro-7-cyclopentylamino-1H-indol-2-yl)-4,5-dihydro-thiazol-4-yl]-propionic acid]", "AC1.5 (the compound concentration at which the enzymatic activity is increased by 1.5 times)": 12},
      {"smiles": "OCCC[C@@H]1CSC(c2cc3cc(Cl)cc(NC4CCCC4)c3[nH]2)=N1", "note": "[Example 150, 3-[(R)-2-(5-chloro-7-cyclopentylamino-1H-indol-2-yl)-4,5-dihydro-thiazol-4-yl]-propan-1-ol]", "AC1.5 (the compound concentration at which the enzymatic activity is increased by 1.5 times)": 10},
      {"smiles": "O=C(O)CC[C@@H]1CSC(c2cc3cc(Cl)cc(NC4CCOCC4)c3[nH]2)=N1", "note": "[Example 151, 3-{(R)-2-[5-chloro-7-(tetrahydro-pyran-4-ylamino)-1H-indol-2-yl]-4,5-dihydro-thiazol-4-yl}-propionic acid]", "AC1.5 (the compound concentration at which the enzymatic activity is increased by 1.5 times)": 14},
      {"smiles": "OCCC[C@@H]1CSC(c2cc3cc(Cl)cc(NC4CCOCC4)c3[nH]2)=N1", "note": "[Example 152, 3-{(R)-2-[5-chloro-7-(tetrahydro-pyran-4-ylamino)-1H-indol-2-yl]-4,5-dihydro-thiazol-4-yl}-propan-1-ol]", "AC1.5 (the compound concentration at which the enzymatic activity is increased by 1.5 times)": 14},
      {"smiles": "O=C(CC[C@@H]1CSC(c2cc3cc(Cl)cc(NC4CCCC4)c3[nH]2)=N1)NCCN1CCOCC1", "note": "[Example 153, 3-[(R)-2-(5-chloro-7-cyclopentylamino-1H-indol-2-yl)-4,5-dihydro-thiazol-4-yl]-N-(2-morpholin-4-yl-ethyl)-propionamide]", "AC1.5 (the compound concentration at which the enzymatic activity is increased by 1.5 times)": 12},
      {"smiles": "CN1CCN(C(=O)CC[C@@H]2CSC(c3cc4cc(Cl)cc(NC5CCCC5)c4[nH]3)=N2)CC1", "note": "[Example 154, 3-[(R)-2-(5-chloro-7-cyclopentylamino-1H-indol-2-yl)-4,5-dihydro-thiazol-4-yl]-1-(4-methyl-piperazin-1-yl)-propan-1-one]", "AC1.5 (the compound concentration at which the enzymatic activity is increased by 1.5 times)": 14}
    ]}
  ]
}
